Data reported in patent publication US20110028409A1, “DETECTION OF ANTI-RIBOSOMAL P PROTEIN ANTIBODIES BY MEANS OF SYNTHETIC PEPTIDES” (TOSCANA BIOMARKERS S.R.L., priority 2009, published 2011).
Ends that are not written are not given here.

Tests used:
[1] = tested on: anti-ribosomal P protein antibodies (IgG) in serum samples; assay: Antibody detection by covalent ELISA (peptide covalently linked to plate); type: binding, human; conditions: for healthy donor positive sera (%): 6 healthy donor sera diluted 1:100; for SLE positive sera (%): 8 SLE sera diluted 1:100; for SLE positive sera (positive/tested): SLE sera diluted 1:100; for healthy donor positive sera (positive/tested): healthy donor sera diluted 1:100
Protocol: A peptide, prepared as described in example 1, was covalently linked to a 96-wells microtitre plate (carboxy or amine binding plate) using sulfo-N-hydroxysuccinimide and 1-ethyl-3-(3-dimethylaminopropyl)carbodiimide. Peptide coupling took place for 2 h at r.t. The plate was blocked for 1 h with 5% FBS in PBS or with 0.5 M Gly (pH 8). The patients serum samples were diluted 1:100 in FBS buffer and were then loaded onto the plate for 1.5 h at r.t. After plate washings, an anti human-IgG antibody conjugated to the enzyme alkaline phosphatase was added and incubated for 1.5 h at r.t. After washings, the alkaline phosphate substrate p-nitrophenyl phosphate was added to the wells. After the quenching of the enzymatic reaction with 1 M NaOH, the absorbance was evaluated at a wavelength of 405 nm.

[2] = tested on: anti-ribosomal P protein antibodies (IgG) in serum samples; assay: Antibody detection by ELISA (peptide adsorbed onto microtitre plate); type: binding, human
Protocol: A peptide, prepared as described in example 1 and diluted in 0.05 M carbonate buffer (pH 9.6) or in PBS buffer (pH 7.4) was adsorbed onto 96-wells microtitre plates for 4 h at r.t. The wells were treated for 1 h at r.t. with FBS (FBS 5% in PBS). The patients serum samples (diluted 1:100) were then loaded onto the plate and allowed to react overnight at +4° C. After plate washing, an anti human-IgG antibody conjugated to the enzyme alkaline phosphatase was added and incubated for 3 h at r.t. After washings, the alkaline phosphate substrate p-nitrophenyl phosphate was added to the wells. After the quenching of the enzymatic reaction with 1 M NaOH, the absorbance was evaluated at a wavelength of 405 nm.
In total, 25 serum samples of patients suffering from SLE and 68 serum of healthy blood donors were tested by this method.

[3] = tested on: SLE specific auto-antibodies in patients sera; conditions: literature; cited from earlier work

In the case of GVNVEPFWPGL [Peptide 3], the “healthy donor positive sera (%)” value [1] is reported as 0%, the “SLE positive sera (%)” value [1] is reported as 12% and the “SLE positive sera (positive/tested)” value [1] is reported as 1/8. The “healthy donor positive sera (positive/tested)” value [1] was 0/6.
For PFWPGLFAKA [Peptide 4], the “healthy donor positive sera (%)” value [1] was 0%, the “SLE positive sera (%)” value [1] was 12% and the “SLE positive sera (positive/tested)” value [1] was 1/8. The “healthy donor positive sera (positive/tested)” value [1] was 0/6.
With LIKAAGVNVE [Peptide 2] the “healthy donor positive sera (%)” value [1] was 0%, the “SLE positive sera (%)” value [1] was 37% and the “SLE positive sera (positive/tested)” value [1] was 3/8. For the same substance, the “healthy donor positive sera (positive/tested)” value [1] was 0/6.
With “LIKAAGVNVEPFWPGLFAKA [Peptide 1, linear peptide derived from the N-terminal region of human ribosomal P1 protein]” the “SLE positive sera (%)” value ([2]; 25 SLE sera, diluted 1:100, adsorbed peptide) was 32%, the “healthy donor positive sera (%)” value ([2]; 68 healthy blood donor sera, diluted 1:100, adsorbed peptide) was 1% and the “number of SLE sera negative to peptide 9 in which anti ribosomal antibodies were detected” value ([2]; SLE serum negative to peptide 9) was 3. The “number of peptide 9-positive SLE sera showing cross-reactivity with peptide 1” value ([2]; among the SLE sera positive to peptide 9) was 4, the “healthy donor positive sera (positive/tested)” value ([2]; sera of healthy blood donors, diluted 1:100, adsorbed peptide) was 1/68 and the “SLE positive sera (positive/tested)” value ([2]; sera of patients suffering from SLE, diluted 1:100, adsorbed peptide, absorbance 405 nm) was 8/25. For the same substance, the “healthy donor positive sera (%)” value [1] was 0%, the “SLE positive sera (%)” value [1] was 50% and the “SLE positive sera (positive/tested)” value [1] was 4/8. The “healthy donor positive sera (positive/tested)” value [1] was 0/6.
In the case of “NH2-Lys-Lys-Glu-Glu-Lys-Lys-Glu-Glu-Ser-Glu-Glu-Glu-Asp-Glu-Asp-Met-Gly-Phe-Gly-Leu-Phe-Asp-COOH (H-KKEEKKEESEEEDEDMGFGLFD-OH) [Peptide C-22, peptide comprising the last 22 amino acids of ribosomal P proteins]”, the “patients sera in which SLE specific auto-antibodies are detected” value [3] is listed as 10-20%.
